Patent publication US20260231994A1, “TASTE-ENHANCING COMPOSITION, METHOD FOR PRODUCING SAME, FOOD PRODUCT, AND METHOD FOR ENHANCING TASTE OF FOOD PRODUCT” (HOUSE FOODS GROUP INC., priority 2023, published 2026)

Legend:
Format in all cases: in vivo
[1] = Experiment 6 sensory evaluation of cyclic dipeptides, “boosting of last flavor (aftertaste)”
In short: (§1)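 Reduced-sodium curry roux (44 g in 300 g hot water) was spiked with cyclic dipeptide solutions matching heat-treated coriander or paprika levels, at 0.5% or 1.0% (w/w) final. Three evaluators scored each sample against unspiked reduced-sodium and common roux. Mean scores were graded F to AA.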

[2] = Experiment 1 sensory evaluation of “boosting of flavor” (cyclic dipeptides, coriander); conditions: for “boosting of flavor” Average: cyclic dipeptide aqueous solution (concentration as in heat-treated coriander) at final 0.2% (w/w) in reduced-sodium curry roux dispersion, score 1-5; for “boosting of flavor” Evaluation: cyclic dipeptide aqueous solution at final 0.2% (w/w) in reduced-sodium curry roux dispersion, class of average score
Procedure: Flour roux was prepared by putting 20 g of flour and 30 g of beef tallow in a pan, then heating with stirring at 120° C. To this flour roux were added 10 g of sodium chloride, 10 g of sugar, 10 g of cornstarch, 5 g of curry powder and 15 g of other seasoning ingredients (vegetable and fruit extracts, yeast extract and seafood extract), and after heat-treatment to 105° C., the mixture was cooled and solidified, to form a block of common curry roux.
The sodium chloride equivalent per 100 g of this curry roux was 10.6 g.
Reduced-sodium curry roux was prepared according to the same procedure, except that the amount of sodium chloride was reduced to 7 g from the amount in the common curry roux in (1).
The sodium chloride equivalent per 100 g of this reduced-sodium curry roux was 7.7 g.
Out of the cyclic dipeptides included in the heat-treated coriander prepared in 1.1. described above, which were confirmed to be increased in 1.2. above, an aqueous solution of the respective 14 cyclic dipeptides shown in the table described below was prepared. The concentration of the cyclic dipeptide in each aqueous solution was set to be equal to its concentration in the heat-treated coriander prepared in 1.1. described above, which was estimated from the ratio of the peak area of the cyclic dipeptide to the peak area of the internal standard (47 μg/g L-lysine-^13C6 monohydrochloride) confirmed in 1.2. described above.
Two dispersions of 44 g of the reduced-sodium curry roux in (2) dispersed in 300 g of hot water were prepared.
To one of them was added the heat-treated coriander or the powdered unheated coriander prepared in 1.1. described above, or the cyclic dipeptide aqueous solution (corresponding to the heat-treated coriander) prepared in (3) above, so that the final concentration was 0.2% (w/w), and a sensory evaluation was carried out.
Forty-four grams of the common curry roux in (1) was dispersed in 300 g of hot water.
The dispersion of reduced-sodium curry roux dispersed in hot water and the dispersion of common curry roux dispersed in hot water were used as comparative controls, and the strength of the flavor was evaluated by four evaluators on the basis of the following evaluation criteria from the viewpoint of “boosting of flavor.” The term “boosting of flavor” in this experiment is an effect concerted by the combination of sodium chloride and other foodstuffs in curry roux, and is an aspect of “saltiness.” Thus, the “flavor” in this experiment can be also expressed as “saltiness.”
The average of the evaluated scores was defined as “F” when it was 1.0 or lower, “C” when it was 1.1 or higher and 1.9 or lower, “B” when it was 2.0 or higher and 2.5 or lower, “A” when it was 2.6 or higher and 2.9 or lower, and “AA” when it was 3.0 or higher.

[3] = Experiment 6 sensory evaluation of cyclic dipeptides, “top sharp saltiness”
In short: as §1

[4] = Experiment 6 sensory evaluation of cyclic dipeptides, “middle fullness (enhanced thickness)”
In short: as §1

[5] = Additive amount paprika 0.5%, reduced-sodium curry roux
[6] = heat-treated paprika equivalent aqueous solution of cyclic dipeptide, final 1.0% (w/w) in reduced-sodium curry roux dispersion
[7] = heat-treated paprika equivalent aqueous solution of cyclic dipeptide, final 1.0% (w/w) in reduced-sodium curry roux dispersion, 3 evaluators
[8] = Additive amount paprika 0.5% (heat-treated paprika equivalent aqueous solution, final 0.5% (w/w)), reduced-sodium curry roux
[9] = Additive amount coriander 0.5%, reduced-sodium curry roux
[10] = heat-treated coriander equivalent aqueous solution of cyclic dipeptide, final 1.0% (w/w) in reduced-sodium curry roux dispersion
[11] = heat-treated coriander equivalent aqueous solution of cyclic dipeptide, final 1.0% (w/w) in reduced-sodium curry roux dispersion, 3 evaluators
[12] = Additive amount coriander 0.5% (heat-treated coriander equivalent aqueous solution, final 0.5% (w/w)), reduced-sodium curry roux

Substance | Bosting of last flavor Average [1, 5] | Bosting of last flavor Evaluation [1, 5] | Bosting of last flavor Evaluation [1, 6] | Bosting of last flavor Average [1, 7] | “boosting of flavor” Average [2] | “boosting of flavor” Evaluation [2] | Top sharp saltiness Average [3, 8] | Top sharp saltiness Evaluation [3, 5] | Top sharp saltiness Evaluation [3, 6] | Top sharp saltiness Average [3, 7] | Middle fullness Average [4, 5] | Middle fullness Evaluation [4, 5] | Middle fullness Evaluation [4, 6] | Middle fullness Average [4, 7] | Bosting of last flavor Average [1, 9] | Bosting of last flavor Evaluation [1, 9] | Bosting of last flavor Evaluation [1, 10] | Bosting of last flavor Average [1, 11] | Top sharp saltiness Average [3, 12] | Top sharp saltiness Evaluation [3, 9] | other results
cyclic (Gly-Val) [Coriander ID 21] | 2.5 points | B (“B” when it was 2.0 or higher and 2.5 or lower) | B (“B” when it was 2.0 or higher and 2.5 or lower) | 2.2 points | 2.3 points | B (“B” when it was 2.0 or higher and 2.5 or lower) | 2.3 points | B (“B” when it was 2.0 or higher and 2.5 or lower) | C (“C” when it was 1.1 or higher and 1.9 or lower) | 1.7 points | 2.3 points | B (“B” when it was 2.0 or higher and 2.5 or lower) | B (“B” when it was 2.0 or higher and 2.5 or lower) | 2.0 points |  |  |  |  |  |  | 
cyclic (Leu/Ile-Val) [Coriander ID 42] |  |  |  |  | 2.0 points | B (“B” when it was 2.0 or higher and 2.5 or lower) |  |  |  |  |  |  |  |  | 3.0 points | AA (“AA” when it was 3.0 or higher) | A (“A” when it was 2.6 or higher and 2.9 or lower) | 2.7 points | 2.5 points | B (“B” when it was 2.0 or higher and 2.5 or lower) | Top sharp saltiness Evaluation [3, 10]: B (“B” when it was 2.0 or higher and 2.5 or lower); Top sharp saltiness Average [3, 11]: 2.0 points; Middle fullness Average [4, 9]: 2.8 points; Middle fullness Evaluation [4, 9]: A (“A” when it was 2.6 or higher and 2.9 or lower); Middle fullness Evaluation [4, 10]: A (“A” when it was 2.6 or higher and 2.9 or lower); Middle fullness Average [4, 11]: 2.7 points
cyclic (Phe-Ala) [Coriander ID 33] |  |  |  |  | 3.0 points | AA (“AA” when it was 3.0 or higher) |  |  |  |  |  |  |  |  | 2.5 points | B (“B” when it was 2.0 or higher and 2.5 or lower) | B (“B” when it was 2.0 or higher and 2.5 or lower) | 2.5 points | 2.3 points | B (“B” when it was 2.0 or higher and 2.5 or lower) | “boosting of flavor” in words ([2]; added to reduced-sodium curry roux dispersion, compared with no addition, unheated coriander or common curry roux): comparable flavor to that of the dispersion of common curry roux; Top sharp saltiness Evaluation [3, 10]: B (“B” when it was 2.0 or higher and 2.5 or lower); Top sharp saltiness Average [3, 11]: 2.0 points; Middle fullness Average [4, 9]: 2.5 points; Middle fullness Evaluation [4, 9]: B (“B” when it was 2.0 or higher and 2.5 or lower); Middle fullness Evaluation [4, 10]: B (“B” when it was 2.0 or higher and 2.5 or lower); Middle fullness Average [4, 11]: 2.5 points
cyclic (Val-Tyr) [Coriander ID 35] | 1.8 points | C (“C” when it was 1.1 or higher and 1.9 or lower) | B (“B” when it was 2.0 or higher and 2.5 or lower) | 2.3 points |  |  | 1.8 points | C (“C” when it was 1.1 or higher and 1.9 or lower) | B (“B” when it was 2.0 or higher and 2.5 or lower) | 2.3 points | 2.2 points | B (“B” when it was 2.0 or higher and 2.5 or lower) | B (“B” when it was 2.0 or higher and 2.5 or lower) | 2.2 points |  |  |  |  |  |  | 
